Like-named read-outs stand apart in the source and are kept apart here.
Assays:
Assay type in all cases: cell-based
[1] = system: blastospores of Paecilomyces fumosoroseus ARSEF 3581; experiment: % germination assay (6-hr) of blastospores in surfactant solutions
Description: (§1) Blastospore suspensions (˜1×10^8 blastospores/ml) were prepared by adding 1.3 g of the dried blastospores of P. fumosoroseus formulate to 100 ml sterile deionized water. The spore suspension was stirred for 30 minutes, and then allowed to stand 1 minute to allow the diatomaceous earth to settle. Without disturbing the diatomaceous earth, 30 ml of the spore suspension was removed and transferred to a sterile bottle. The blastospore concentration of the suspension was measured using a hemacytometer.
A one ml aliquot of the previously described blastospore suspension was added to 49 ml of the foaming agents in a 250 ml baffled Erlenmeyer flask. The blastospore suspensions were incubated in a rotary shaker incubator (Innova 4000, New Brunswick) at 300 RPM and 28° C. for 6 hours. Blastospore germination was measured by microscopic observation of the germ tube formation. Four slides were prepared from the incubated blastospore suspension using separate pipets. Germ tube formation was measured for 100 blastospores on each slide. A total of 400 blastospores were counted from each flask.

[2] = system: blastospores of Paecilomyces fumosoroseus ARSEF 3581; experiment: Viability assay, CFU spread plate after 1 hour exposure to surfactant; conditions: in words
Description: as §1
For these studies, 1 ml of the previously described blastospore suspension was added to 49 ml of the foaming agents and held for 1 hour at room temperature. After the one hour exposure period, colony forming units (cfu) were determined for blastospore suspensions using standard spread plating techniques. Appropriate dilutions of blastospore suspensions were spread on SDMA (Sabouraud dextrose maltose agar) plates, 10 g Bacto peptone, 20 g Difco dextrose, 20 g Sigma maltose, and 15 g Bacto agar per 1 L water. Three plates were used for each dilution. Plates were incubated at 28° C. for 2-3 days and CFUs counted.

[3] = system: blastospores of Paecilomyces fumosoroseus ARSEF 3581; experiment: Conidia production assay on water agar in the dark; conditions: 2 weeks in the dark
Description: For the conidia production assay, 100 ul of the blastospore suspension was spread onto WA plates (Water Agar: 20 g/L water.) and incubated 2 weeks in the dark. Three plates were used for each treatment. The drop was spread with a sterile plastic spreader and incubated at 23° C. in the dark for 2 weeks. After two weeks, 5 ml of sterile water was added to each plate, and a sterile loop was used to release the conidia from the fungal growth. The spore suspension was drawn up with a pipet and the volume measured. The conidia concentration was measured using a hemacytometer. Our previous determination of the blastospore concentration in the suspension applied to the […] plates was used to calculate conidia production/blastospore.

Triton x-100
germination of blastospores relative to the water-only control ([1]; 6-hr germination assay, in words): strongly inhibited | cfu formation relative to the water control [2]: comparable or better cfu formation than the water control | conidia production (conidia/blastospore) ([3]; surfactant 0.5% (w/w)): 95 conidia/blastospore | conidia production (conidia/blastospore) ([3]; surfactant 1.0% (w/w)): 57 conidia/blastospore | conidia production (conidia/blastospore) ([3]; surfactant 2.0% (w/w)): 27 conidia/blastospore

sodium lauryl ether sulfate (2-mole) [Na Lauryl ether sulfate (2-mole)]
% viability 6-hr germination [1]: 0.0%

CCCCCCCCCCCCCCCC[N+](C)(C)C.[Br-] [hexadecyl trimethylammonium Br, hexadecyl trimethylammonium bromide]
% viability 6-hr germination ([1]; surfactant 0.5% (w/w), 6 hours, 28° C.): 0.0%

sodium alpha olefin sulfonate [Na alpha olefin sulfonate]
% viability 6-hr germination [1]: 0.0%
